Measured values as given in patent US9315475B2 (MERCK SHARP & DOHME CORP., priority 2011, dated 2016).

These molecules were tested against T1, wildtype HIV-1 protease (Human immunodeficiency virus type 1 group M subtype B, UniProt P04585) (assay: Assay for inhibition of microbial expressed HIV protease (Pepcleav)). Details: wild type HIV-1 protease expressed in E. coli, peptide substrate, pH 5.5; mean of at least two independent experiments; read-out: Pepcleav.
T1 construct: the wildtype HIV-1 protease (which was expressed in Escherichia coli); made in house; host or cells: Escherichia coli
Assay type: biochemical
Method in brief: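 E. coli-expressed wild-type HIV-1 protease (20 pM) preincubated 30 min at room temperature with inhibitor in pH 5.5 sodium acetate/NaCl/BSA buffer, then 400 μM Val-Ser-Gln-Asn-(βnaphthyl)Ala-Pro-Ile-Val added for 1 h at 30 °C. Quenched with formic acid; product quantified by LC-MS/MS peak area, indinavir internal standard.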

Row | Structure (SMILES) | IC50 [nM]
1 | COC(=O)N[C@H](C(=O)Nc1ccccc1CC[C@@H]1CN[C@H](CCc2ccccc2NS(=O)(=O)Cc2ccccc2)CO1)C(c1ccccc1)c1ccccc1 [Example 73, N-(2-{2-[(2R,5R)-5-(2-{2-[(benzylsulfonyl)amino]phenyl}ethyl)morpholin-2-yl]ethyl}phenyl)-Nα-(methoxycarbonyl)-β-phenyl-L-phenylalaninamide] | 21
2 | COC(=O)N[C@H](C(=O)Nc1ccccc1CC[C@@H]1CN[C@H](CCc2ccccc2NC(=O)OCc2ccccc2)CO1)C(c1ccccc1)c1ccccc1 [Example 74, methyl N-[(1S)-1-benzhydryl-2-[[2-[2-[(2R,5R)-5-[2-(2-benzyloxycarbonylamino-phenyl)ethyl]morpholin-2-yl]ethyl]phenyl]amino]-2-oxo-ethyl]carbamate] | 10
3 | COC(=O)N[C@H](C(=O)Nc1ccccc1CC[C@@H]1CN[C@H](CCc2ccccc2NC(=O)NCc2ccccc2)CO1)C(c1ccccc1)c1ccccc1 [Example 75, methyl N-[(1S)-1-benzhydryl-2-[[2-[2-[(2R,5R)-5-[2-[2-(benzylcarbamoylamino)phenyl]ethyl]morpholin-2-yl]ethyl]phenyl]amino]-2-oxo-ethyl]carbamate] | 4.1
4 | COC(=O)Nc1ccccc1CC[C@@H]1CO[C@H](CCc2ccccc2NC(=O)[C@@H](NC(=O)OC)C(c2ccccc2)c2ccccc2)CN1 [Example 76, methyl N-[(1S)-1-benzhydryl-2-[[2-[2-[(2R,5R)-5-[2-[2-(methoxy-carbonylamino)phenyl]ethyl]morpholin-2-yl]ethyl]phenyl]amino]-2-oxo-ethyl]carbamate] | 52
5 | CCNC(=O)Nc1ccccc1CC[C@@H]1CO[C@H](CCc2ccccc2NC(=O)[C@@H](NC(=O)OC)C(c2ccccc2)c2ccccc2)CN1 [Example 77] | 15
6 | COC(=O)N[C@H](C(=O)Nc1ccccc1CC(F)[C@@H]1CN[C@H](COC(=O)NCc2ccc(F)cc2)CO1)C(c1ccccc1)c1ccccc1 (stereo partly drawn) [Example 78, N-(2-{2-fluoro-2-[(2S,5S)-5-({[(4-fluorobenzyl)carbamoyl]oxy}methyl)morpholin-2-yl]ethyl}phenyl)-Nα-(methoxycarbonyl)-β-phenyl-L-phenylalaninamide] | 59
7 | COC(=O)N[C@H](C(=O)Nc1ccccc1CC[C@@H]1CN[C@H](CNC(=O)OC2CCOC2)CO1)C(c1ccccc1)c1ccccc1 (stereo partly drawn) [Example 84, Nα-(methoxycarbonyl)-β-phenyl-N-(2-{2-[(2R,5R)-5-({[(tetrahydrofuran-3-yloxy)carbonyl]amino}methyl)morpholin-2-yl]ethyl}phenyl)-L-phenylalaninamide] | 670
8 | NC(=O)OC[C@@H]1CO[C@H](CCc2c(F)cncc2NC(=O)[C@@H](N)C(c2ccc(F)cc2)c2ccc(F)cc2)CN1 [Example 119, N-[4-(2-{(2R,5S)-5-[(Carbamoyloxy)methyl]morpholin-2-yl}ethyl)-5-fluoropyridin-3-yl]-4-fluoro-β-(4-fluorophenyl)-L-phenylalaninamide] | 6.9
9 | COC(=O)N[C@H](C(=O)Nc1cccc(F)c1CC[C@@H]1CN[C@H](COC(=O)NCC(F)(F)F)CO1)[C@@H](c1ccc(Cl)c(F)c1)C1CCOCC1 [Example 129, (βR)-4-Chloro-3-fluoro-N-(3-fluoro-2-{2-[(2R,5S)-5-({[(2,2,2-trifluoroethyl)carbamoyl]oxy}methyl)morpholin-2-yl]ethyl}phenyl)-Nα-(methoxycarbonyl)-β-(tetrahydro-2H-pyran-4-yl)-L-phenylalaninamide] | 8.6
10 | O=C(NCC(F)(F)F)OC[C@@H]1CO[C@H](CCc2c(F)cncc2NC(=O)[C@@H](NC(=O)OCC(F)(F)F)C(c2ccc(F)cc2)c2ccc(F)cc2)CN1 [Example 141, 4-Fluoro-β-(4-fluorophenyl)-N-(5-fluoro-4-{2-[(2R,5S)-5-({[(2,2,2-trifluoroethyl)carbamoyl]oxy}methyl)morpholin-2-yl]ethyl}pyridin-3-yl)-Nα-[(2,2,2-trifluoroethoxy)carbonyl]-L-phenylalaninamide] | 180
11 | O=C(C[C@H](c1ccccc1)c1ccncc1)Nc1cccc(F)c1CC[C@@H]1CN[C@H](COC(=O)NCC(F)(F)F)CO1 [Example 162, {(3S,6R)-6-[2-(2-fluoro-6-{[(3R)-3-phenyl-3-pyridin-4-ylpropanoyl]amino}phenyl)ethyl]morpholin-3-yl}methyl (2,2,2-trifluoroethyl)carbamate] | 510
12 | O=C(C[C@H](CC1CC1)c1ccccc1)Nc1cccc(F)c1CC[C@@H]1CN[C@H](COC(=O)NCC(F)(F)F)CO1 [Example 163, {(3S,6R)-6-[2-(2-{[(3S)-4-cyclopropyl-3-phenyl-butanoyl]amino}-6-fluoro-phenyl)ethyl]morpholin-3-yl}methyl (2,2,2-trifluoroethyl)carbamate] | 1100
13 | N[C@@H](Cc1ccccc1C1CC1)C(=O)Nc1cncc(F)c1CC[C@@H]1CN[C@H](COC(=O)NCC(F)(F)F)CO1 [Example 189, 2-cyclopropyl-N-(5-fluoro-4-{2-[(2R,5S)-5-({[(2,2,2-trifluoroethyl)carbamoyl]oxy}methyl)morpholin-2-yl]ethyl}pyridin-3-yl)-L-phenylalaninamide] | 1730
14 | N[C@@H](Cc1cccc2ccccc12)C(=O)Nc1cncc(F)c1CC[C@@H]1CN[C@H](COC(=O)NCC(F)(F)F)CO1 [Example 190, {(3S,6R)-6-[2-(3-{[(2S)-2-amino-3-naphthalen-1-ylpropanoyl]amino}-5-fluoropyridin-4-yl)ethyl]morpholin-3-yl}methyl (2,2,2-trifluoroethyl)carbamate (non-preferred name)] | 510
15 | N[C@@H](Cc1cccc2ccccc12)C(=O)Nc1cncc(F)c1CC[C@@H]1CN[C@H](COC(=O)NCc2ccc(F)cc2)CO1 [Example 191, {(3S,6R)-6-[2-(3-{[(2S)-2-amino-3-naphthalen-1-ylpropanoyl]amino}-5-fluoropyridin-4-yl)ethyl]morpholin-3-yl}methyl (4-fluorobenzyl)carbamate (non-preferred name)] | 130
16 | N[C@H](C(=O)Nc1ccc(F)cc1CC[C@@H]1CN[C@H](COC(=O)NCC(F)F)CO1)C(c1ccccc1)c1ccccc1 [Example 192, N-(2-{2-[(2R,5S)-5-({[(2,2-difluoroethyl)carbamoyl]oxy}methyl)morpholin-2-yl]ethyl}-4-fluorophenyl)-β-phenyl-L-phenylalaninamide] | 130
17 | N[C@H](C(=O)Nc1cncc(F)c1CC[C@@H]1CN[C@H](COC(=O)NC2(c3ccncc3)CCC2)CO1)C(c1ccc(F)cc1)c1ccc(F)cc1 [Example 194, 4-fluoro-β-(4-fluorophenyl)-N-(5-fluoro-4-{2-[(2R,5S)-5-({[(1-pyridin-4-ylcyclobutyl)carbamoyl]oxy}methyl)morpholin-2-yl]ethyl}pyridin-3-yl)-L-phenylalaninamide] | 100
18 | C[C@H](Oc1c(F)cccc1NC(=O)[C@@H](N)C(c1ccc(F)cc1)c1ccc(F)cc1)[C@@H]1CN[C@H](COC(=O)NCc2ccc(F)cc2)CO1 [Example 195, 4-fluoro-N-(3-fluoro-2-{(1S)-1-[(2S,5S)-5-({[(4-fluorobenzyl)carbamoyl]oxy}methyl)morpholin-2-yl]ethoxy}phenyl)-β-(4-fluorophenyl)-L-phenylalaninamide] | 91
19 | N[C@H](C(=O)Nc1ccc(F)cc1CC[C@@H]1CN[C@H](COC(=O)NCC(F)(F)F)CO1)C(c1ccccc1)c1ccccc1 [Example 196, N-(4-fluoro-2-{2-[(2R,5S)-5-({[(2,2,2-trifluoroethyl)carbamoyl]oxy}methyl)morpholin-2-yl]ethyl}phenyl)-β-phenyl-L-phenylalaninamide] | 79
20 | N[C@H](C(=O)Nc1cncc(F)c1CC[C@@H]1CN[C@H](COC(=O)N2CCOCC2)CO1)C(c1ccc(F)cc1)c1ccc(F)cc1 [Example 197, {(3S,6R)-6-[2-(3-fluoro-5-{[4-fluoro-β-(4-fluorophenyl)-L-phenylalanyl]amino}pyridin-4-yl)ethyl]morpholin-3-yl}methyl morpholine-4-carboxylate] | 68
21 | N[C@H](C(=O)Nc1cccc(F)c1CC[C@@H]1CN[C@H](COC(=O)NCc2ccncc2)CO1)C(c1ccc(F)cc1)c1ccc(F)cc1 [Example 198, 4-fluoro-β-(4-fluorophenyl)-N-(3-fluoro-2-{2-[(2R,5S)-5-({[(pyridin-4-ylmethyl)carbamoyl]oxy}methyl)morpholin-2-yl]ethyl}phenyl)-L-phenylalaninamide] | 44
22 | CCC[C@@H](c1ccccc1)[C@H](N)C(=O)Nc1cccc(F)c1CC[C@@H]1CN[C@H](COC(=O)NCc2ccc(F)cc2)CO1 [Example 199, (βS)-N-(3-fluoro-2-{2-[(2R,5S)-5-({[(4-fluorobenzyl)carbamoyl]oxy}methyl)morpholin-2-yl]ethyl}phenyl)-β-propyl-L-phenylalaninamide] | 41
23 | N[C@H](C(=O)Nc1c(F)cccc1OC[C@@H]1CN[C@H](COC(=O)NCC(F)(F)F)CO1)C(c1ccc(F)cc1)c1ccc(F)cc1 [Example 200, 4-fluoro-β-(4-fluorophenyl)-N-(2-fluoro-6-{[(2S,5S)-5-({[(2,2,2-trifluoroethyl)carbamoyl]oxy}methyl)morpholin-2-yl]methoxy}phenyl)-L-phenylalaninamide] | 31
24 | N[C@H](C(=O)Nc1cncc(F)c1OC[C@@H]1CN[C@H](COC(=O)NCC(F)(F)F)CO1)C(c1ccc(F)cc1)c1ccc(F)cc1 [Example 203, 4-fluoro-β-(4-fluorophenyl)-N-(5-fluoro-4-{[(2S,5S)-5-({[(2,2,2-trifluoroethyl)carbamoyl]oxy}methyl)morpholin-2-yl]methoxy}pyridin-3-yl)-L-phenylalaninamide] | 28
25 | N[C@@H](Cc1ccccc1Cl)C(=O)Nc1cccc(F)c1CC[C@@H]1CN[C@H](COC(=O)NCc2ccc(F)cc2)CO1 [Example 204, 2-chloro-N-(3-fluoro-2-{2-[(2R,5S)-5-({[(4-fluorobenzyl)carbamoyl]oxy}methyl)morpholin-2-yl]ethyl}phenyl)-L-phenylalaninamide] | 26
